Data published in publication PMC5702336, “Critical Role of Hepatic Cyp450s in the Testis-Specific Toxicity of (5R)-5-Hydroxytriptolide in C57BL/6 Mice” (Frontiers in Pharmacology, 2017).

Key:
GC-2spd cells = experiment: Pol II protein level in spermatocyte-like cells (western blot); format: cell-based, mouse
Description: Mouse GC-1spg (spermatogonia-like, ATCC number: CRL-2053), TM4 (Sertoli cell-like, ATCC number: CRL-1715), and GC-2spd (spermatocyte-like, ATCC number: CRL-2196) were purchased from ATCC (Manassas, VA). Cells were grown in a 5% CO2 atmosphere at 37°C. TM4 was cultured in DMEM supplemented with 5% horse serum, 2.5% fetal bovine serum and 1x antibiotic-antimyotic (Cat. NO. 15240062, Life technologies). GC-1spg and GC-2spd were cultured in DMEM supplemented with 10% fetal bovine serum (Cat. No. F2442, Sigma, USA) and 1x antibiotic-antimyotic (Cat.NO. 15240062, Life technologies).
Cells were washed twice with ice-cold PBS (137 mM NaCl, 2.7 mM KCl, 10 mM Na2HPO4, and 1.8 mM KH2PO4, pH 7.4) and lysed in SDS sample buffer. Cell lysates, containing 20 μg of protein, were separated with SDS-PAGE (8%) and transferred to polyvinylidene difluoride membranes. After blocking in 5% non-fat milk in tris-buffered saline containing 0.1% Tween-20 (pH = 7.6), membranes were incubated with the appropriate primary antibodies at 4°C overnight. The primary antibodies γ-H2AX (Cat. No: 2577, Lot. No: 11, CST, USA) and Pol II (Cat. No: 05-623, Lot. No: 2397109, Millipore, USA) diluted 1:1000 in 5% bovine serum albumin (BSA, Cat. No. B2064-50G, Sigma, USA). […]

[1] = Toxicokinetics of LLDT-8 in WT and liver-Cpr KO mice after a single oral dose (plasma and tissue levels by LC-MS/MS); format: in vivo, mouse; settings: for T1/2: mean ± SD, n = 5
Description: For toxicokinetic experiments, mice (n = 5–6/group for each time point) were treated with a single dose of LLDT-8 at (0.5 or 1.0 mg/kg) by oral gavage, creating 4 treatment groups: 0.5 mg/kg LLDT-8-treated WT and KO mice, and 1.0 mg/kg LLDT-8-treated WT and KO mice. After LLDT-8 treatment, 20 μL blood samples were collected at 5, 10, 20, 30, 45, 60, 90, 120, and 180 min from tail vein. Plasma was separated by centrifugation at 3,000 rpm for 5 min and kept at −80°C until analysis. Tissues including the liver, kidney, testes, and epididymis were also collected from individual mice at 30 and 180 min after dosing and were weighed and homogenized in saline (1.0 g wet weight/mL) on ice. LLDT-8 was then extracted from the plasma or the tissue homogenates with an equal volume of ethyl acetate and dried under nitrogen. The residues were reconstituted in 50 μL of mobile phase for analysis.
The quantification of LLDT-8 in samples was performed on Shimadzu 20A HPLC system (Shimadzu, Kyoto, Japan) equipped with an autosampler coupled to Shimadzu 8030 triple quadrupole mass spectrometer (Shimadzu, Kyoto, Japan). Separations were conducted under isocratic conditions. The mobile phase consisting of acetonitrile and water with 0.1% formic acid (50:50, v/v) was set at a flow rate of 0.2 mL/min. An electrospray interface in negative ionization mode was used. ESI source parameters were as followed: high purity drying-gas (N2) flow rate 8 L/min, temperature 400°C, nebulizer pressure 25 psi. Multiple reaction monitoring (MRM) was used to quantify LLDT-8 (m/z 421.20 [M+COO]- → 45.10, fragmentor 110 eV, collision energy −20 eV). Analytical data were processed using the labsolution software package (Shimadzu, Kyoto, Japan) consisting of qualitative and quantitative software.
Standard curves for LLDT-8 were prepared by spiking known amounts of the LLDT-8 standard into plasma or tissue homogenate samples prepared from untreated mice. LLDT-8 concentrations in biological samples were determined by comparisons with standard curves. Pharmacokinetics were calculated using Kinetica software (version 4.4.1; Thermo Fisher Scientific Inc, Woburn, MA).

γ-H2AX = γ-H2AX protein level and localization in testes and liver (western blot, immunofluorescence); format: in vivo, mouse
Description: (§1) For toxicity experiments, mice (n = 3/group) were treated with LLDT-8 (0.5 or 1.0 mg/kg) consecutively administered by gavage for 15 days. Controls received saline. Mice were killed on the 15th-day post-administration and blood, liver, kidney, spleen, testes, and epididymis were collected. About 500 μL blood samples were collected from the heart. The main lobe of the liver, kidney, spleen, and epididymis was fixed in 10% neutral buffered formalin for histological examination, and the left testicle was fixed in modified Davidson's buffer (30% of a 37–40% solution of formaldehyde, 15% ethanol, 5% glacial acetic acid, and 50% distilled H2O) for 16 h followed by 10% neutral buffered formalin for 24 h (Latendresse et al., [2002]). Tissue sections were stained with hematoxylin and eosin (H&E). Remaining tissues were stored at −80°C for RNA and protein extraction.
(§2) Cells were washed twice with ice-cold PBS (137 mM NaCl, 2.7 mM KCl, 10 mM Na2HPO4, and 1.8 mM KH2PO4, pH 7.4) and lysed in SDS sample buffer. Cell lysates, containing 20 μg of protein, were separated with SDS-PAGE (8%) and transferred to polyvinylidene difluoride membranes. After blocking in 5% non-fat milk in tris-buffered saline containing 0.1% Tween-20 (pH = 7.6), membranes were incubated with the appropriate primary antibodies at 4°C overnight. The primary antibodies γ-H2AX (Cat. No: 2577, Lot. No: 11, CST, USA) and Pol II (Cat. No: 05-623, Lot. No: 2397109, Millipore, USA) diluted 1:1000 in 5% bovine serum albumin (BSA, Cat. No. B2064-50G, Sigma, USA). Then the membranes were exposed to secondary antibodies (1:10,000, Cat. No.111-035-003, 115-035-003, Jackson ImmunoResearch Laboratories, USA) in 5% non-fat milk for 1 h at room temperature. Immunoreactive proteins were visualized using an enhanced chemiluminescent system (Cat. No. WBKLS0500, Millipore, Shanghai, China).
For immunofluorescence analysis, the paraffin-embedded testis tissue samples were deparaffinized three times in exchanges wash of xylene. The testis sections were then gradually rehydrated using decreasing ethanol concentrations followed by PBS (pH = 7.4). After antigen retrieval in boiling 0.1M citrate buffer (pH = 6.0), the tissue sections were placed in humidity chambers and incubated with 4% BSA in PBS for 2 h at room temperature. Then 1:400 1% BSA diluted γ-H2AX primary antibody (Cat. No: ab26350, Lot. No: GR305763-3, Abcam, USA) and isotope control Mouse IgG1 (Cat. No: sc-3877, Lot. No: F1316, Santa Cruz, USA) was used. After incubated with primary antibody overnight at 4°C, testis tissue samples were washed three times with PBS. […]

RNA polymerase II = RNA polymerase II protein level in testes and liver (western blot); format: in vivo, mouse; settings: 0.5–1 mg/kg, 15 days
Description: as §1, §2

[2] = KO mice, plasma, 1.0 mg/kg single oral dose
[3] = WT mice, plasma, 1.0 mg/kg single oral dose

SMILES: CC(C)[C@]12O[C@H]1[C@@H]1O[C@]13[C@]1(O[C@H]1C[C@@]1(O)C4=C(CC[C@]31C)C(=O)OC4)[C@@H]2O [LLDT-8, (5R)-5-hydroxytriptolide]
- Pol II protein (GC-2spd cells): dose- and time-dependently reduced
- LLDT-8 levels in liver, kidney, testis and epididymis of KO mice relative to WT mice ([1]; 30 min after 1.0 mg/kg oral dose): 2–3 folds
- AUC [1, 2]: 753.52 ± 76.39 [ng/ml] × h
- CL (oral clearance) [1, 2]: 22.2 ± 2 mL/min/kg
- Cmax [1, 2]: 57.97 ± 8.28 ng/mL
- Tmax [1, 2]: 19.8 ± 6.6 min
- T1/2 [1, 2]: 35.4 ± 3.6 min
- CL (oral clearance) [1, 3]: 68.8 ± 8.83 mL/min/kg
- Cmax [1, 3]: 29.95 ± 2.81 ng/mL
- Tmax [1, 3]: 10.2 ± 0 min
- T1/2 [1, 3]: 18.6 ± 1.8 min
- clearance in KO mice compared to WT mice ([1]; single oral dose): marked decrease
- increase in AUC in KO mice ([1]; single oral dose, KO vs WT): 3.1 folds to WT mice
- increase in Cmax in KO mice ([1]; single oral dose, KO vs WT): 1.9 folds to WT mice
- increase in half-life in KO mice ([1]; single oral dose, KO vs WT): 1.9 folds to WT mice
- XY bodies indicated by γ-H2AX foci in testes of WT mice (γ-H2AX; 1.0 mg/kg LLDT-8, 15 days): decreased
- γ-H2AX protein level (immunoblotting) in testes and liver (γ-H2AX; 0.5–1 mg/kg, 15 days): reduction of γ-H2AX protein level in the testes but not in the liver
- XY bodies indicated by γ-H2AX foci in testes of KO mice (γ-H2AX; LLDT-8 treated, 15 days): disappeared
- reduction of γ-H2AX in the testes of WT mice (γ-H2AX; immunoblotting, not statistically significant): up to 40%
- Pol II protein in the testes of KO mice (RNA polymerase II): decreased
- Pol II protein level in the livers of KO mice (RNA polymerase II): did not change
- expression of Pol II in the testes and liver of WT mice (RNA polymerase II): did not change significantly
